What is called pIC50 is −log10 of the IC50, conventionally taken in molar units.

pIC50: −log10 of the molar value. Where only a bound is given, the exact number is not on record here.

Here are results for 60 compounds from patent USRE47193E1, “Selectively substituted quinoline compounds” (EISAI R&D MANAGEMENT CO., LTD., priority 2013, dated 2019).

The assay has as its system Human TLR7/8. The assay is described as follows: Human PBMC cell-based assay, TLR7/8 stimulus (RNA-Ig), cytokine ELISA. Particulars: primary human PBMC assay, TLR7/8 potency; ligand not given; read-out: Human PBMCs IC50. The procedure: Human PBMC Cell-Based Assay. Human peripheral blood mononuclear cells (PBMC) were isolated from freshly-drawn heparinized (10 USP units/ml, Hospira, Lakeforest, Ill.) healthy donor whole blood by density gradient (Histopaque® 1077, Sigma, Inc., St. Louis, Mo.). Briefly, 25 ml blood was diluted with 15 ml PBS (without Ca^2+, Mg^2+) in a 50 ml conical tube, and 12 ml Histopaque was underlaid using a spinal needle. Tubes were centrifuged for 45 minutes at 1200 rpm (350×g), and PBMC were collected from the buffy coat. Cells were then washed twice in PBS, and red blood cells were lysed by suspension in 5 ml ammonium chloride solution (1× Red Blood Cell Lysis Buffer, eBioscience) for 5 minutes at room temperature. After a final wash in PBS, PBMC were resuspended at a final concentration of 2×10^6/ml in RPMI-1640 media with L-glutamine (Invitrogen) and supplemented with 25 mM HEPES (Mediatech, Inc, Manassas Va.), 10% fetal bovine serum (HyClone, Logan, Utah), and Penicillin-Streptomycin-Glutamine (Mediatech) and plated at 100 ul/well (2×10^5 cells/well) in tissue culture treated 96-well plates (Falcon).
Antagonist compounds solubilized and serial diluted in 100% DMSO were added in triplicate to cells to yield a final concentration of 0.1% DMSO (v/v). Hydroxychloroquine (Acros Organics) solubilized and serial diluted in PBS was added in triplicate to cells. PBMC were incubated with antagonist compounds or HCQ for 30 minutes at 37° C., 5% CO2 before adding various TLR agonist reagents in 100 ul complete media per well as follows (final concentrations indicated): R848 (Resiquimod; GLSynthesis, Worcester, Mass.) at 1 uM for TLR7 and TLR8, LPS (Sigma) at 10 ng/ml for TLR4, and CpG-2216 (InvivoGen) at 5 ug/ml for TLR9. To prepare a TLR7/8 agonist that mimics RNA-containing auto-antibody immune complexes in lupus patients, a 26-mer RNA with a sequence derived from human U1 snRNA stem loop IV [(sequence: […]-[…] (SEQ ID NO: 2) with phosphorothioate backbone] was synthesized (Dharmacon, Inc., Lafayette, Colo.), which has been shown previously to be a potent TLR7 and TLR8 agonist. This RNA molecule was diluted to 2.5 μM in serum-free RPMI, and mouse anti-human single stranded DNA monoclonal antibody (MAB3034, Millipore, Inc., Billerica, Mass.), which also cross-reacts with RNA, was added at a 1:25 dilution or at 1 ug/ml. The resulting “RNA-Ig” stimulus was incubated at room temperature for 15-30 minutes before adding to cells. PBMC were incubated with the various TLR agonists for 20 hours at 37° C., 5% CO2. Cell culture supernatants were collected, and levels of various human cytokines were assessed as indicated by standard ELISA procedure according to the manufacturer's recommended protocol (BD Biosciences, Inc., San Diego, Calif.). In a subsequent assay (Table 6) the ability of ER-899742 to block stimulation of normal PBMC by various TLR7/8 ligands, but not DNA-mediated activation of TLR9, was examined. In this assay cells were plated at 1×10^5 cells/well in 100 ul in 96-well plates.
Background: An ELISA detects its analyte on a solid surface through an enzyme-linked reagent.

For the compound `CCCCCC(=O)NC1CCN(CC2CN(c3ccc(C#N)c4ncccc34)CC(C)O2)CC1` (stereo not drawn) [ER-889744], the negative logarithm of the IC50 (pIC50) was 8.10.

As for `CC1CN(c2ccc(C#N)c3ncccc23)CC(CN2CCC(NC(=O)C(C)(C)C)CC2)O1` (stereo not drawn) [ER-889746], the pIC50 was 7.14.

Turning to `C[C@@H]1CCN(c2ccc(C#N)c3ncccc23)C[C@H](CN2CCC(N3CCCCC3)CC2)O1` [ER-889822], the negative-log IC50 (pIC50) is 7.60. To `CC1CN(c2ccc(C#N)c3ncccc23)CC(CN2CC(N3CCN(C)CC3)C2)O1` (stereo not drawn) [ER-890108] belongs 8.05. As to `CC(=O)N1CCC(C2CCN(CC3CN(c4ccc(C#N)c5ncccc45)CC(C)O3)CC2)CC1` (stereo not drawn) [ER-890113], the pIC50 was 7.66. To `CC1CN(c2ccc(C#N)c3ncccc23)CC(CN2CC(N3CCNCC3)C2)O1` (stereo not drawn) [ER-890119] belongs 8.10; to `CC(=O)N1CCN(C2CN(CC3CN(c4ccc(C#N)c5ncccc45)CC(C)O3)C2)CC1` (stereo not drawn) [ER-890120], 8.30; to `CC(=O)N[C@@H]1CCN(C[C@H]2CN(c3ccc(C#N)c4ncccc34)C[C@@H](C)O2)C1` [ER-890252], 7.38. To `CC(C)C(=O)N[C@@H]1CCN(C[C@H]2CN(c3ccc(C#N)c4ncccc34)C[C@@H](C)O2)C1` [ER-890253] belongs 7.19; to `CC1CN(c2ccc(C#N)c3ncccc23)CC(CN2CC(N3CCOCC3)C2)O1` (stereo not drawn) [ER-890342], 6.92; to `CC1CN(c2ccc(C#N)c3ncccc23)CC(CN2CCNCC2C)O1` (stereo not drawn) [ER-890344], 8.70. To `CC1CN(c2ccc(C#N)c3ncccc23)CC(CN2CC(N3CCC(N)CC3)C2)O1` (stereo not drawn) [ER-892253] belongs 7.18. `Cc1nn(C)cc1C(=O)NC1CCN(CC2CN(c3ccc(C#N)c4ncccc34)CC(C)O2)CC1` (stereo not drawn) [ER-893926]: the pIC50 is 8.10. Take `C[C@@H]1CN(c2ccc(C#N)c3ncccc23)C[C@H](CN2CCC(NS(=O)(=O)c3ccccc3)CC2)O1` [ER-894149]: the pIC50 is 7.51. Consider `CC1CN(c2ccc(C#N)c3ncccc23)CC(CN2CCC(NS(=O)(=O)c3ccc(F)cc3)CC2)O1` (stereo not drawn) [ER-894150], for which the negative-log IC50 (pIC50) was 8.40. The figure for `C[C@@H]1CN(c2ccc(C#N)c3ncccc23)C[C@H](CN2CC(NS(C)(=O)=O)C2)O1` [ER-894154] is 6.84; for `C[C@@H]1CN(c2ccc(C#N)c3ncccc23)C[C@H](CN2CC(NS(=O)(=O)c3ccc(F)cc3)C2)O1` [ER-894155] it is 7.38. To `Cc1nn(C)cc1S(=O)(=O)NC1CN(C[C@H]2CN(c3ccc(C#N)c4ncccc34)C[C@@H](C)O2)C1` [ER-894159] belongs 7.38; to `Cc1nn(C)cc1S(=O)(=O)NC1CCN(C[C@H]2CN(c3ccc(C#N)c4ncccc34)C[C@@H](C)O2)CC1` [ER-894160], 7.96. The figure for `C[C@@H]1CN(c2ccc(C#N)c3ncccc23)C[C@H](CN2CCNC(=O)[C@H]2C)O1` [ER-894483] is 6.68.

For `C[C@@H]1CN(c2ccc(C#N)c3ncccc23)C[C@H](CN2CCNC(=O)[C@@H]2C)O1` [ER-894484], the negative-log IC50 (pIC50) was 6.76. On to `CC(=O)N[C@H]1CCN(C[C@H]2CN(c3ccc(C#N)c4ncccc34)C[C@@H](C)O2)C1` [ER-894546], for which the negative-log IC50 (pIC50) was 7.16. Take `CC(C)C(=O)N[C@H]1CCN(C[C@H]2CN(c3ccc(C#N)c4ncccc34)C[C@@H](C)O2)C1` [ER-894547]: the negative logarithm of the IC50 (pIC50) is 7.92. The figure for `C[C@@H]1CN(c2ccc(C#N)c3ncccc23)C[C@H](CN2CC[C@H](NC(=O)c3ccccc3)C2)O1` [ER-894548] is 7.55.

For the compound `C[C@@H]1CN(c2ccc(C#N)c3ncccc23)C[C@H](CN2CC[C@H](N(C)C)C2)O1` [ER-894549], the pIC50 is 7.85. With `CC1CN(c2ccc(C#N)c3ncccc23)CC(COc2cnccn2)O1` (stereo not drawn) [ER-894552], the pIC50 was 7.77. On to `CC1CN(c2ccc(C#N)c3ncccc23)CC(C(C)O)O1` (stereo not drawn) [ER-895200], for which the negative logarithm of the IC50 (pIC50) was 7.59.

For `CC1CN(c2ccc(C#N)c3ncccc23)CC(C(C)O)O1` (stereo not drawn) [ER-895310], the pIC50 is 7.47. `CC1CN(c2ccc(C#N)c3ncccc23)CC(COc2ccccn2)O1` (stereo not drawn) [ER-895324]: the pIC50 was 9.00. For the compound `CC1CN(c2ccc(C#N)c3ncccc23)CC(C(N)=O)O1` (stereo not drawn) [ER-895472], the pIC50 is 6.79. The figure for `CC1CN(c2ccc(C#N)c3ncccc23)CC(C(=O)N2CCC(N3CCCCC3)CC2)O1` (stereo not drawn) [ER-895477] is 7.89; for `COCCNC(=O)C1CN(c2ccc(C#N)c3ncccc23)CC(C)O1` (stereo not drawn) [ER-897385] it is 6.85; for `CC(O)CNC(=O)C1CN(c2ccc(C#N)c3ncccc23)CC(C)O1` (stereo not drawn) [ER-897445] it is 6.98. To `CC(CO)NC(=O)C1CN(c2ccc(C#N)c3ncccc23)CC(C)O1` (stereo not drawn) [ER-897446] belongs 7.28. To `CC(CO)NC(=O)C1CN(c2ccc(C#N)c3ncccc23)CC(C)O1` (stereo not drawn) [ER-897447] belongs 7.00; to `CCC(CO)NC(=O)C1CN(c2ccc(C#N)c3ncccc23)CC(C)O1` (stereo not drawn) [ER-897827], 7.41; to `CC1CN(c2ccc(C#N)c3ncccc23)CC(C(=O)NC(CO)C(C)C)O1` (stereo not drawn) [ER-897828], 7.68. In the case of `CCC(O)CNC(=O)C1CN(c2ccc(C#N)c3ncccc23)CC(C)O1` (stereo not drawn) [ER-897922], the pIC50 was 7.19. To `CC1CN(c2ccc(C#N)c3ncccc23)CC(C(=O)NC2CCCCC2O)O1` (stereo not drawn) [ER-897938] belongs 7.80.

On to `CC1CN(c2ccc(C#N)c3ncccc23)CC(C(=O)NC(CO)C(C)(C)C)O1` (stereo not drawn) [ER-897940], for which the pIC50 was 7.68. The figure for `CC1CN(c2ccc(C#N)c3ncccc23)CC(C(=O)NCC2CN(C)CCO2)O1` (stereo not drawn) [ER-897945] is 8.70; for `CC1CN(c2ccc(C#N)c3ncccc23)CC(C(=O)NC2CNC2)O1` (stereo not drawn) [ER-897964] it is 7.70; for `CC1CN(c2ccc(C#N)c3ncccc23)CC(C(=O)NC2CCNC2)O1` (stereo not drawn) [ER-897965] it is 8.00.

As for `CC1CN(c2ccc(C#N)c3ncccc23)CC(C(=O)NC2CCCNC2)O1` (stereo not drawn) [ER-897967], the negative-log IC50 (pIC50) was 7.89.

Consider `CC1CN(c2ccc(C#N)c3ncccc23)CC(C(=O)NCC(F)(F)F)O1` (stereo not drawn) [ER-898563], for which the negative-log IC50 (pIC50) is 6.91. The figure for `CC1CN(c2ccc(C#N)c3ncccc23)CC(C(=O)NCCC(F)(F)F)O1` (stereo not drawn) [ER-898565] is 6.70. The figure for `CC1CN(c2ccc(C#N)c3ncccc23)CC(C(=O)NCC2CN(C)CCO2)O1` (stereo not drawn) [ER-898707] is 8.70; for `CC1CN(c2ccc(C#N)c3ncccc23)CC(C(=O)NCCF)O1` (stereo not drawn) [ER-898914] it is 6.77.

For `CC1CN(c2ccc(C#N)c3ncccc23)CC(C(=O)Nc2ccnn2C)O1` (stereo not drawn) [ER-898919], the pIC50 was 7.26. The figure for `C[C@@H]1CN(c2ccc(C#N)c3ncccc23)C[C@H](C(=O)NC2(C#N)CC2)O1` [ER-898921] is 6.52. Regarding `CC1CN(c2ccc(C#N)c3ncccc23)CC(C(=O)Nc2ncns2)O1` (stereo not drawn) [ER-898922], the negative-log IC50 (pIC50) is under 6.00.

Turning to `Cc1nsc(NC(=O)C2CN(c3ccc(C#N)c4ncccc34)CC(C)O2)n1` (stereo not drawn) [ER-898923], the negative logarithm of the IC50 (pIC50) is 6.20.

As to `CC1CN(c2ccc(C#N)c3ncccc23)CC(C(=O)NCC2(F)CCNCC2)O1` (stereo not drawn) [ER-899019], the negative logarithm of the IC50 (pIC50) is 7.85. The figure for `CC1CN(c2ccc(C#N)c3ncccc23)CC(C(=O)NCC2CNC2)O1` (stereo not drawn) [ER-899020] is 7.46; for `C[C@@H]1CN(c2ccc(C#N)c3ncccc23)C[C@H](C(=O)N2CC3(CCCNC3)C2)O1` [ER-899021] it is 8.30. For the compound `CC1CN(c2ccc(C#N)c3ncccc23)CC(C(=O)NCC2COC2)O1` (stereo not drawn) [ER-899121], the pIC50 is 6.85. The figure for `CNCCNC(=O)C1CN(c2ccc(C#N)c3ncccc23)CC(C)O1` (stereo not drawn) [ER-899140] is 7.96; for `C[C@@H]1CN(c2ccc(C#N)c3ncccc23)C[C@H](C(=O)NCCN(C)C)O1` [ER-899154] it is 7.85; for `CC1CN(c2ccc(C#N)c3ncccc23)CC(C(=O)NCCC(O)C(F)(F)F)O1` (stereo not drawn) [ER-899160] it is 6.60. `CC1CN(c2ccc(C#N)c3ncccc23)CC(C(=O)NCC2CNCCO2)O1` (stereo not drawn) [ER-899278]: the negative-log IC50 (pIC50) was 9.00.
